Experimental data taken from PubChem BioAssay (NCI).
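Assay format: 96-well plates, 48-hour exposure. GI50 marks 50% less growth. TGI is the concentration that stops growth completely.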

Assays:
Test in all cases: NCI anticancer screen, dose series, 48 h
[1] = tested on: IGROV1 ovarian
[2] = tested on: CAKI-1 renal
[3] = tested on: 786-0 renal
[4] = tested on: HCT-15 colon
[5] = tested on: NCI-H226 lung
[6] = tested on: MOLT-4 leukemia
[7] = tested on: SN12C renal
[8] = tested on: SW-620 colon
[9] = tested on: U251 CNS
[10] = tested on: SK-MEL-2 melanoma
[11] = tested on: SF-539 CNS
[12] = tested on: HCC-2998 colon
[13] = tested on: EKVX NSCLC
[14] = tested on: M14 melanoma
[15] = tested on: TK-10 renal
[16] = tested on: SK-MEL-28 melanoma
[17] = tested on: LOX IMVI melanoma
[18] = tested on: SNB-75 CNS
[19] = tested on: SK-OV-3 ovarian
[20] = tested on: MCF7 breast
[21] = tested on: SF-295 CNS
[22] = tested on: UO-31 renal
[23] = tested on: OVCAR-8 ovarian
[24] = tested on: BT-549 breast
[25] = tested on: K-562 leukemia
[26] = tested on: ACHN renal
[27] = tested on: HOP-62 NSCLC
[28] = tested on: A549 NSCLC
[29] = tested on: A498 renal
[30] = tested on: MALME-3M melanoma
[31] = tested on: OVCAR-5 ovarian
[32] = tested on: SR leukemia
[33] = tested on: MDA-MB-435
[34] = tested on: OVCAR-3 ovarian
[35] = tested on: HL-60(TB) leukemia
[36] = tested on: HCT-116 colon
[37] = tested on: NCI-H460 lung
[38] = tested on: CCRF-CEM leukemia
[39] = tested on: KM12 colon
[40] = tested on: HS 578T breast
[41] = tested on: NCI/ADR-RES ovarian
[42] = tested on: UACC-257 melanoma
[43] = tested on: MDA-MB-231 breast
[44] = tested on: RXF 393 renal
[45] = tested on: PC-3 prostate
[46] = tested on: HT29 colon
[47] = tested on: COLO 205 colon
[48] = tested on: SNB-19 CNS
[49] = tested on: NCI-H23 lung
[50] = tested on: SF-268 CNS
[51] = tested on: SK-MEL-5 melanoma
[52] = tested on: UACC-62 melanoma
[53] = tested on: DU-145 prostate
[54] = tested on: NCI-H522 lung
[55] = tested on: RPMI-8226 leukemia
[56] = tested on: T-47D breast
[57] = tested on: OVCAR-4 ovarian
[58] = tested on: HOP-92 NSCLC

C/C(=C\c1c[nH]c2ccccc12)[N+](=O)[O-]
GI50 [1]: 5.43 µM
TGI [1]: 19.2 µM
GI50 [2]: 5.67 µM
TGI [2]: 18.9 µM
GI50 [3]: 4.27 µM
TGI [3]: 15.5 µM
GI50 [4]: 2.48 µM
TGI [4]: 13.7 µM
GI50 [5]: 13.3 µM
TGI [5]: 30.6 µM
GI50 [6]: 2.19 µM
TGI [6]: 5.83 µM
GI50 [7]: 3.53 µM
TGI [7]: 14.4 µM
GI50 [8]: 5.78 µM
TGI [8]: 26 µM
GI50 [9]: 2.14 µM
TGI [9]: 7.04 µM
GI50 [10]: 6.24 µM
TGI [10]: 20.8 µM
GI50 [11]: 3.7 µM
TGI [11]: 15.2 µM
GI50 [12]: 10.5 µM
TGI [12]: 23 µM
GI50 [13]: 10.2 µM
TGI [13]: 27.1 µM
GI50 [14]: 2.57 µM
TGI [14]: 5.65 µM
GI50 [15]: 10.8 µM
TGI [15]: 24.5 µM
GI50 [16]: 1.84 µM
TGI [16]: 5.47 µM
GI50 [17]: 1.89 µM
TGI [17]: 4.86 µM
GI50 [18]: 1.89 µM
TGI [18]: 6.93 µM
GI50 [19]: 11.4 µM
TGI [19]: 23.7 µM
GI50 [20]: 2.67 µM
TGI [20]: 28 µM
GI50 [21]: 7.97 µM
TGI [21]: 22.7 µM
GI50 [22]: 4.85 µM
TGI [22]: 17.7 µM
GI50 [23]: 4.18 µM
TGI [23]: 17.9 µM
GI50 [24]: 11 µM
TGI [24]: 24 µM
GI50 [25]: 4.03 µM
TGI [25]: 16.5 µM
GI50 [26]: 4.36 µM
TGI [26]: 16.6 µM
GI50 [27]: 4.04 µM
TGI [27]: 13.6 µM
GI50 [28]: 5.85 µM
TGI [28]: 21.4 µM
GI50 [29]: 14.9 µM
TGI [29]: 29.6 µM
GI50 [30]: 2.54 µM
TGI [30]: 7.85 µM
GI50 [31]: 19.3 µM
TGI [31]: 34 µM
GI50 [32]: 1.15 µM
TGI [32]: 4.25 µM
GI50 [33]: 5.56 µM
TGI [33]: 20.1 µM
GI50 [34]: 8.57 µM
TGI [34]: 24.8 µM
GI50 [35]: 2.3 µM
TGI [35]: 6.46 µM
GI50 [36]: 2.37 µM
TGI [36]: 8.08 µM
GI50 [37]: 4.18 µM
TGI [37]: 17.4 µM
GI50 [38]: 1.62 µM
TGI [38]: 4.2 µM
GI50 [39]: 3.98 µM
TGI [39]: 15.6 µM
GI50 [40]: 7.61 µM
TGI [40]: 43.8 µM
GI50 [41]: 6.23 µM
TGI [41]: 19.7 µM
GI50 [42]: 4.89 µM
TGI [42]: 17.1 µM
GI50 [43]: 11.4 µM
TGI [43]: 24.5 µM
GI50 [44]: 2.91 µM
TGI [44]: 11.5 µM
GI50 [45]: 4.07 µM
TGI [45]: 15.4 µM
GI50 [46]: 3.02 µM
TGI [46]: 12.9 µM
GI50 [47]: 5.06 µM
TGI [47]: 17.4 µM
GI50 [48]: 5.82 µM
TGI [48]: 20 µM
GI50 [49]: 10.2 µM
TGI [49]: 22.6 µM
GI50 [50]: 4.16 µM
TGI [50]: 19.2 µM
GI50 [51]: 5.8 µM
TGI [51]: 19.2 µM
GI50 [52]: 4.04 µM
TGI [52]: 15.9 µM
GI50 [53]: 3.73 µM
TGI [53]: 15.5 µM
GI50 [54]: 3.19 µM
TGI [54]: 11.6 µM
GI50 [55]: 1.81 µM
TGI [55]: 4.17 µM
GI50 [56]: 4.27 µM
TGI [56]: 22.2 µM
GI50 [57]: 7.58 µM
TGI [57]: 21 µM

COc1cc(-c2nc3ccccc3s2)ccc1OCc1nc2n(n1)S(=O)(=O)c1ccccc1N2C
GI50 [58]: 43.9 µM
TGI [58]: > 100 µM
GI50 [1]: > 100 µM
TGI [1]: > 100 µM
GI50 [2]: > 100 µM
TGI [2]: > 100 µM
GI50 [3]: > 100 µM
TGI [3]: > 100 µM
GI50 [4]: > 100 µM
TGI [4]: > 100 µM
GI50 [5]: > 100 µM
TGI [5]: > 100 µM
GI50 [6]: > 100 µM
TGI [6]: > 100 µM
GI50 [7]: > 100 µM
TGI [7]: > 100 µM
GI50 [8]: > 100 µM
TGI [8]: > 100 µM
GI50 [9]: > 100 µM
TGI [9]: > 100 µM
GI50 [10]: > 100 µM
TGI [10]: > 100 µM
GI50 [11]: > 100 µM
TGI [11]: > 100 µM
GI50 [12]: > 100 µM
TGI [12]: > 100 µM
GI50 [13]: > 100 µM
TGI [13]: > 100 µM
GI50 [14]: > 100 µM
TGI [14]: > 100 µM
GI50 [15]: > 100 µM
TGI [15]: > 100 µM
GI50 [16]: > 100 µM
TGI [16]: > 100 µM
GI50 [17]: > 100 µM
TGI [17]: > 100 µM
GI50 [18]: 99.6 µM
TGI [18]: > 100 µM
GI50 [19]: > 100 µM
TGI [19]: > 100 µM
GI50 [20]: > 100 µM
TGI [20]: > 100 µM
GI50 [21]: > 100 µM
TGI [21]: > 100 µM
GI50 [22]: > 100 µM
TGI [22]: > 100 µM
GI50 [23]: > 100 µM
TGI [23]: > 100 µM
GI50 [24]: > 100 µM
TGI [24]: > 100 µM
GI50 [25]: 97.4 µM
TGI [25]: > 100 µM
GI50 [26]: > 100 µM
TGI [26]: > 100 µM
GI50 [27]: > 100 µM
TGI [27]: > 100 µM
GI50 [28]: > 100 µM
TGI [28]: > 100 µM
GI50 [29]: > 100 µM
TGI [29]: > 100 µM
GI50 [30]: > 100 µM
TGI [30]: > 100 µM
GI50 [31]: > 100 µM
TGI [31]: > 100 µM
GI50 [32]: > 100 µM
TGI [32]: > 100 µM
GI50 [33]: > 100 µM
TGI [33]: > 100 µM
GI50 [34]: 62.4 µM
TGI [34]: > 100 µM
GI50 [35]: > 100 µM
TGI [35]: > 100 µM
GI50 [36]: > 100 µM
TGI [36]: > 100 µM
GI50 [37]: > 100 µM
TGI [37]: > 100 µM
GI50 [38]: > 100 µM
TGI [38]: > 100 µM
GI50 [39]: > 100 µM
TGI [39]: > 100 µM
GI50 [40]: > 100 µM
TGI [40]: > 100 µM
GI50 [41]: > 100 µM
TGI [41]: > 100 µM
GI50 [42]: > 100 µM
TGI [42]: > 100 µM
GI50 [43]: > 100 µM
TGI [43]: > 100 µM
GI50 [45]: > 100 µM
TGI [45]: > 100 µM
GI50 [46]: > 100 µM
TGI [46]: > 100 µM
GI50 [47]: > 100 µM
TGI [47]: > 100 µM
GI50 [48]: > 100 µM
TGI [48]: > 100 µM
GI50 [49]: > 100 µM
TGI [49]: > 100 µM
GI50 [50]: > 100 µM
TGI [50]: > 100 µM
GI50 [51]: > 100 µM
TGI [51]: > 100 µM
GI50 [52]: > 100 µM
TGI [52]: > 100 µM
GI50 [53]: > 100 µM
TGI [53]: > 100 µM
GI50 [54]: 96.8 µM
TGI [54]: > 100 µM
GI50 [56]: > 100 µM
TGI [56]: > 100 µM
GI50 [57]: > 100 µM
TGI [57]: > 100 µM
